According to patent US10065953B2, “Imidazo[1,2-A]pyridine derivatives for use as inhibitors of human immunodeficiency virus replication” (priority 2014, dated 2018):
Where a name gives a salt, the structure may show the parent alone.

The compounds below were run on recombinant NL-Rluc virus (assay: Inhibition of HIV replication (NL-RLuc luciferase reporter virus in MT-2 cells)). Settings: Human immunodeficiency virus 1, MT2, 120 h, MT-2 cells infected with NL-RLuc virus, 5 days of incubation, luciferase readout; serum condition of the table not specified.
Assay type: cell-based
For `Cc1cc2nc(-c3cccc(-c4ccccc4)c3)cn2c(N2CCC(C)(C)CC2)c1[C@H](OC(C)(C)C)C(=O)O` [Example 1, (S)-2-(2-([1,1′-Biphenyl]-3-yl)-5-(4,4-dimethylpiperidin-1-yl)-7-methylimidazo[1,2-a]pyridin-6-yl)-2-(tert-butoxy)acetic Acid], the EC50 was 51 nM.
In the case of `Cc1ccc(-c2cccc(-c3cn4c(N5CCC(C)(C)CC5)c([C@H](OC(C)(C)C)C(=O)O)c(C)cc4n3)c2)cc1` [Example 2, (S)-2-(tert-butoxy)-2-(5-(4,4-dimethylpiperidin-1-yl)-7-methyl-2-(4′-methyl-[1,1′-biphenyl]-3-yl)imidazo[1,2-a]pyridin-6-yl)acetic Acid], the EC50 is reported as 32 nM.
`Cc1cc2nc(-c3cccc(-c4ccc(F)cc4)c3)cn2c(N2CCC(C)(C)CC2)c1[C@H](OC(C)(C)C)C(=O)O` [Example 3, (S)-2-(tert-Butoxy)-2-(5-(4,4-dimethylpiperidin-1-yl)-2-(4′-fluoro-[1,1′-biphenyl]-3-yl)-7-methylimidazo[1,2-a]pyridin-6-yl)acetic Acid] showed an EC50 of 26 nM.
Compound `Cc1cc2nc(-c3cccc(-c4cccc(F)c4)c3)cn2c(N2CCC(C)(C)CC2)c1[C@H](OC(C)(C)C)C(=O)O` [Example 4, (S)-2-(tert-butoxy)-2-(5-(4,4-dimethylpiperidin-1-yl)-2-(3′-fluoro-[1,1′-biphenyl]-3-yl)-7-methylimidazo[1,2-a]pyridin-6-yl)acetic Acid] has an EC50 of 21 nM.
`Cc1cc2nc(-c3cccc(-c4ccc(F)cc4F)c3)cn2c(N2CCC(C)(C)CC2)c1[C@H](OC(C)(C)C)C(=O)O` [Example 5, (S)-2-(tert-Butoxy)-2-(2-(2′,4′-difluoro-[1,1′-biphenyl]-3-yl)-5-(4,4-dimethylpiperidin-1-yl)-7-methylimidazo[1,2-a]pyridin-6-yl)acetic Acid] was tested, and the EC50 was 29 nM.
`Cc1ccc(-c2cccc(-c3cn4c(N5CCC(C)(C)CC5)c([C@H](OC(C)(C)C)C(=O)O)c(C)cc4n3)c2)c(F)c1` [Example 6, (S)-2-(tert-Butoxy)-2-(5-(4,4-dimethylpiperidin-1-yl)-2-(2′-fluoro-4′-methyl-[1,1′-biphenyl]-3-yl)-7-methylimidazo[1,2-a]pyridin-6-yl)acetic Acid] gave an EC50 of 21 nM.
For `Cc1cc2nc(-c3cccc(-c4cccc(C#N)c4)c3)cn2c(N2CCC(C)(C)CC2)c1[C@H](OC(C)(C)C)C(=O)O` [Example 7, (S)-2-(tert-Butoxy)-2-(2-(3′-cyano-[1,1′-biphenyl]-3-yl)-5-(4,4-dimethylpiperidin-1-yl)-7-methylimidazo[1,2-a]pyridin-6-yl)acetic Acid], the EC50 was 6 nM.
With `Cc1cc2nc(-c3cccc(-c4cnn(Cc5ccccc5)c4)c3)cn2c(N2CCC(C)(C)CC2)c1[C@H](OC(C)(C)C)C(=O)O` [Example 8, (S)-2-(2-(3-(1-Benzyl-1H-pyrazol-4-yl)phenyl)-5-(4,4-dimethylpiperidin-1-yl)-7-methylimidazo[1,2-a]pyridin-6-yl)-2-(tert-butoxy)acetic Acid] the EC50 was 22 nM.
For `Cc1cc2nc(-c3cccc(-c4cnn(C)c4)c3)cn2c(N2CCC(C)(C)CC2)c1[C@H](OC(C)(C)C)C(=O)O` [Example 9, (S)-2-(tert-Butoxy)-2-(5-(4,4-dimethylpiperidin-1-yl)-7-methyl-2-(3-(1-methyl-1H-pyrazol-4-yl)phenyl)imidazo[1,2-a]pyridin-6-yl)acetic Acid], the EC50 was 6 nM.
`Cc1cc(-c2cccc(-c3cn4c(N5CCC(C)(C)CC5)c([C@H](OC(C)(C)C)C(=O)O)c(C)cc4n3)c2)n(C)n1` [Example 10, (S)-2-(tert-Butoxy)-2-(2-(3-(1,3-dimethyl-1H-pyrazol-5-yl)phenyl)-5-(4,4-dimethylpiperidin-1-yl)-7-methylimidazo[1,2-a]pyridin-6-yl)acetic Acid] was tested, and the EC50 was 7 nM.
Compound `Cc1cc2nc(-c3cccc(-c4cc(C(F)(F)F)nn4C)c3)cn2c(N2CCC(C)(C)CC2)c1[C@H](OC(C)(C)C)C(=O)O` [Example 11, (S)-2-(tert-Butoxy)-2-(5-(4,4-dimethylpiperidin-1-yl)-7-methyl-2-(3-(1-methyl-3-(trifluoromethyl)-1H-pyrazol-5-yl)phenyl)imidazo[1,2-a]pyridin-6-yl)acetic Acid] has an EC50 of 21 nM.
For `Cc1ccc(-c2c([C@H](OC(C)(C)C)C(=O)O)c(C)cc3nc(-c4cccc(-c5ccc(F)cc5)c4)cn23)cc1` [Example 14, (S)-2-(tert-butoxy)-2-(2-(4′-fluoro-[1,1′-biphenyl]-3-yl)-7-methyl-5-(p-tolyl)imidazo[1,2-a]pyridin-6-yl)acetic Acid], the EC50 was 20 nM.
Compound `Cc1cc2nc(-c3cccc(-c4ccc(F)cc4)c3)cn2c(-c2ccc(F)cc2)c1[C@H](OC(C)(C)C)C(=O)O` [Example 17, (S)-2-(tert-Butoxy)-2-(2-(4′-fluoro-[1,1′-biphenyl]-3-yl)-5-(4-fluorophenyl)-7-methylimidazo[1,2-a]pyridin-6-yl)acetic Acid] has an EC50 of 159 nM.
`Cc1cc2nc(-c3cccc(-c4ccc(F)cc4)c3)cn2c(-c2ccc3c(c2)CCCO3)c1[C@H](OC(C)(C)C)C(=O)O` [Example 18, (S)-2-(tert-Butoxy)-2-(5-(chroman-6-yl)-2-(4′-fluoro-[1,1′-biphenyl]-3-yl)-7-methylimidazo[1,2-a]pyridin-6-yl)acetic Acid] gave an EC50 of 7 nM.
Work on `Cc1cc2nc(-c3cccc(-c4ccc(F)cc4)c3)cn2c(-c2ccc3c(c2)C(C)(C)CCO3)c1[C@H](OC(C)(C)C)C(=O)O` [Example 19, (S)-2-(tert-Butoxy)-2-(5-(4,4-dimethylchroman-6-yl)-2-(4′-fluoro-[1,1′-biphenyl]-3-yl)-7-methylimidazo[1,2-a]pyridin-6-yl)acetic Acid] yielded an EC50 of 95 nM.

Same assay, conditions: MT-2 cells infected with NL-RLuc virus, 5 days of incubation, luciferase readout; serum condition of the table not specified
Compound `Cc1cc2nc(-c3cccc(-c4ccc(F)cc4)c3)cn2c(-c2ccc3c4c(ccnc24)CCO3)c1[C@H](OC(C)(C)C)C(=O)O` [Example 12, (2S)-2-(tert-Butoxy)-2-(5-(2,3-dihydropyrano[4,3,2-de]quinolin-7-yl)-2-(4′-fluoro-[1,1′-biphenyl]-3-yl)-7-methylimidazo[1,2-a]pyridin-6-yl)acetic Acid.TFA] has an EC50 of 19 nM.
With `Cc1cc2nc(-c3cccc(-c4ccc(F)cc4)c3)cn2c(-c2ccc3c4c(ccnc24)CCO3)c1[C@H](OC(C)(C)C)C(=O)O` [Example 13, (2S)-2-(tert-Butoxy)-2-(5-(2,3-dihydropyrano[4,3,2-de]quinolin-7-yl)-2-(4′-fluoro-[1,1′-biphenyl]-3-yl)-7-methylimidazo[1,2-a]pyridin-6-yl)acetic Acid.TFA] the EC50 was 398 nM.
`Cc1cc2nc(-c3cccc(-c4ccc(F)cc4)c3)cn2c(-c2cc(F)c3c(c2C)CCCO3)c1[C@H](OC(C)(C)C)C(=O)O` [Example 15, (2S)-2-(tert-Butoxy)-2-(5-(8-fluoro-5-methylchroman-6-yl)-2-(4′-fluoro-[1,1′-biphenyl]-3-yl)-7-methylimidazo[1,2-a]pyridin-6-yl)acetic Acid] was tested, and the EC50 was 175 nM.
Compound `Cc1cc2nc(-c3cccc(-c4ccc(F)cc4)c3)cn2c(-c2cc(F)c3c(c2C)CCCO3)c1[C@H](OC(C)(C)C)C(=O)O` [Example 16, (2S)-2-(tert-Butoxy)-2-(5-(8-fluoro-5-methylchroman-6-yl)-2-(4′-fluoro-[1,1′-biphenyl]-3-yl)-7-methylimidazo[1,2-a]pyridin-6-yl)acetic Acid] has an EC50 of 4 nM.
